{"source": "patent US12268676B2", "about": "“Antiviral applications of picolinic acid and its derivatives” (INDIAN INSTITUTE OF SCIENCE, priority 2021, dated 2025)", "key": {"TM4 mycobacteriophage": {"system": "TM4 mycobacteriophage", "assay": "Effect of drug on TM4 mycobacteriophage", "type": "cell-based", "conditions": "10 MOI", "experimental": "Since most of the naked viruses tested were not inhibited by PA, whether PA would be effective against TM4 mycobacteriophages. M. smegmatis cells in a 48 well plate were treated with increasing concentrations of PA as indicated and OD600 measurements were taken periodically up to 24 hr. […] For the antiviral assay, 1 mM PA was either added at the start of experiment or 3 hr prior to infection. In either case, there was no protection from TM4 mycobacteriophage induced cell death (FIG. 12, panel G).\nEffect of drug on TM4 mycobacteriophage: To study the effect of the drug on TM4 phage growth and activity, 7H9 broth supplemented with ADC and CaCl2 was prepared and inoculated with 100 μL of log-phase secondary bacterial culture (OD 1-2) per 5 mL of the media. 1 mM of the drug was added to culture tubes at the appropriate time (either at the start of the experiment or 3 hr before adding the phage in the mid-log phase). The cultures were then incubated at 37° C. with rotary shaking at 180 pm. For phage-treated samples, a 10 MOI TM4 mycobacteriophage was added at a specified interval of the mid-log phase. […] Readings were taken using a spectrophotometer (Jenway 7205 UV/Visible Spectrophotometer) at 600 nm against a media blank."}, "PR8 WT virus": {"system": "PR8 WT virus", "type": "in vivo, BALB/c mice", "conditions": "for reduction of infectious virus titer in lung homogenates (plaque assay): 20 mg/kg PA prophylactically"}, "IAV PR8 WT strain": {"system": "IAV PR8 WT strain", "type": "in vivo, BALB/c mice"}, "Zika Luc": {"system": "Zika Luc", "assay": "microbe, parasite or virus in culture", "type": "cell-based", "conditions": "A549, 48 h, read-out: inhibition (luciferase, normalized with untreated control)"}, "[1]": {"system": "Adenovirus 5 expressing eGFP", "assay": "Adenovirus 5 eGFP infection of HEK cells, flow cytometry", "type": "cell-based, Adenovirus Serotype 5", "conditions": "2 mM PA, 10 MOI, 24 hr"}, "[2]": {"system": "Para Influenza virus (HPIV Luc)", "assay": "microbe, parasite or virus in culture", "type": "cell-based, Human parainfluenza virus", "conditions": "unidentified influenza virus"}, "AAV6-GFP particles": {"system": "AAV6-GFP particles", "assay": "AAV6-GFP infection of HEK cells, flow cytometry", "type": "cell-based, Adeno Associated Virus-6", "conditions": "2 mM PA, all virus volumes tested, 48 hr p.i."}, "[3]": {"system": "Tf647 labelled endocytic vesicles", "assay": "Localization of transferrin labelled vesicles, confocal microscopy", "type": "cell-based", "conditions": "VeroE6, 2 mM PA, 100 MOI PR8 WT virus", "experimental": "Localization of transferrin labelled vesicles: Vero cells were seeded on glass coverslips in a 12 well dish to reach 70-80% confluency next day. After 3 hr treatment/not with 2 mM PA, cells were washed once with ice cold PBS and the plate was placed on ice for 10 min before incubating with OptiMEM containing PR8 wild type virus (100 MOI) and 25 μg/mL Transferrin 647 (Tf-647) for 1 hr on ice. Cells were washed twice with PBS and the plate moved to 37° C. After a 15 min chase, cells were fixed with 4% PFA, labelled with anti influenza virus HA antibody (PY102) followed by anti-mouse Alexa 488 secondary antibody to label the virus particles. Nuclei were labelled using 0.1 μg/mL DAPI. Images were acquired using a Zeiss LSM-880 Multiphoton microscope.\nThe dispersion of transferrin labelled vesicles from perinuclear region to cell periphery was quantified by drawing region of interests (ROIs) up to 20 μm away from the nuclei. The fluorescence intensity of Tf-647 labelled vesicles was then measured along this distance using ImageJ/Fiji."}, "Rota virus RRV strain": {"system": "Rota virus RRV strain", "assay": "Rotavirus RRV infection of HEK cells, IFA for VP6", "type": "cell-based", "conditions": "HEK cells pre-treated with 2 mM PA, 12 hr", "experimental": "Percentage positive cells was quantified using ImageJ/Fiji.\nRotavirus RRV infection: A working concentration of Rota virus was prepared by diluting the virus stock 2-fold with complete DMEM containing a final concentration of 2 μg/mL TPCK trypsin. The mixture was incubated at 37° C. for 30 min and further diluted 2-fold in DMEM without serum. This mixture was then used to infect HEK cells that were pre-treated for 3 hr with 2 mM PA. A volume of 100 μL per well, in a 24 well plate was used for 1 hr adsorption, after which the wells were topped up with 400 μL serum free media containing PA. After 12 hr, cells were fixed with 4% formalin and immunolabeled with primary mouse anti VP6, and anti-mouse secondary Alexa Fluor 488 antibodies to detect virus infected cells by IFA."}, "[4]": {"conditions": "mouse, in vivo"}, "[5]": {"system": "Herpes Simplex virus 1 (HSV1 Luc)", "assay": "microbe, parasite or virus in culture", "type": "cell-based", "conditions": "Human alphaherpesvirus 1, A549, 48 h, read-out: inhibition in reporter virus assay"}, "[6]": {"system": "clathrin mediated endocytosis", "assay": "Transferrin uptake assay, flow cytometry", "conditions": "A549, 2 mM PA, 1 hr pulse with 25 μg/mL Tf647"}, "Coxsackie virus B3": {"system": "Coxsackie virus B3", "assay": "Coxsackie virus B3 infection of HeLa cells, western blot for VP1", "type": "cell-based", "experimental": "The effects of PA against non-enveloped viruses were tested to see if PA would be effective against non-enveloped viruses as well. To this end, HeLa cells were either pre-treated for 3 hr with 2 mM PA, infected with 10 MOI Coxsackie virus B3 in presence of PA and collected 3 hr later (−3 hr); or treated during infection (T0); or virus and PA were incubated together for 1 hr and used for infection (1 hr virus+PA).\nCoxsackie virus B3 infection: To study early effects of PA, HeLa cells were pre-treated for 3 hr, infected with 10 MOI CVB3, and collected at 3 hr post infection. Alternatively, cells were infected and treated simultaneously (T0) and collected after 3 hr. Also, a mixture of virus and drug incubated for 1 hr (1 hr PA+Virus) was used for infection to test the effects of PA on virus particles. No additional drug was added here post infection. Expression levels of VP1 protein was then detected by western blot analysis."}}, "note": "Where two headings read alike, the source gives them in different places."}
{"smiles": "O=C(O)c1ccccn1", "note": "[PA, pyridine-2-carboxylic acid]", "values": [{"measurement": "protection from TM4 mycobacteriophage induced cell death", "setting": "TM4 mycobacteriophage; 1 mM PA added 3 hr prior to infection", "result": "no protection"}, {"measurement": "protection from TM4 mycobacteriophage induced cell death", "setting": "TM4 mycobacteriophage; 1 mM PA added at the start of experiment", "result": "no protection"}, {"measurement": "reduction of infectious virus titer in lung homogenates (plaque assay)", "setting": "PR8 WT virus; IP route", "result": "> 10", "unit": "fold"}, {"measurement": "reduction of infectious virus titer in lung homogenates (plaque assay)", "setting": "PR8 WT virus; oral route", "result": "> 10", "unit": "fold"}, {"measurement": "survival", "setting": "PR8 WT virus; IP prophylactic group, 7 days p.i.", "result": 80, "unit": "%"}, {"measurement": "bodyweight rescue compared to virus control", "setting": "PR8 WT virus; IP prophylactic group, day 7", "result": "> 10", "unit": "%"}, {"measurement": "rescue of total animal body weight", "setting": "PR8 WT virus; all groups", "result": "Over 90%"}, {"measurement": "abrogation of lung virus titers, IP vs oral route", "setting": "PR8 WT virus; mouse, in vivo", "result": "more effective"}, {"measurement": "clinical scores of histology sections", "setting": "PR8 WT virus; mouse, in vivo", "result": "recovery"}, {"measurement": "lung histology analysis", "setting": "PR8 WT virus; mouse, in vivo", "result": "marked reduction in pathology"}, {"measurement": "animal survival", "setting": "PR8 WT virus; mouse, in vivo, ip", "result": "completely rescue"}, {"measurement": "lung histology analysis", "setting": "PR8 WT virus; mouse, in vivo, po", "result": "best rescue"}, {"measurement": "decrease in virus titre from lung tissue (plaque assay) compared to untreated", "setting": "IAV PR8 WT strain; 20 mg PA, 72 hr post infection", "result": "Over 10 fold"}, {"measurement": "body weight loss after IAV infection", "setting": "IAV PR8 WT strain; animals infected in the presence of 100 mg PA", "result": 30, "unit": "%"}, {"measurement": "body weight loss after IAV infection", "setting": "IAV PR8 WT strain; mouse, in vivo", "result": "minimal loss in body weight"}, {"measurement": "decrease in survival rate", "setting": "IAV PR8 WT strain; mouse, in vivo", "result": "significantly reduced"}, {"measurement": "inhibition at 2000 µM", "setting": "Zika Luc", "result": "> 90", "unit": "%"}, {"measurement": "GFP positive cells, treated vs untreated", "setting": "[1]", "result": "Almost no differences"}, {"measurement": "inhibition at 2000 µM", "setting": "[2]; A549, 48 h, read-out: inhibition in reporter virus assay", "result": "80 to 90", "unit": "%"}, {"measurement": "inhibition at 2000 µM", "setting": "[2]; A549, read-out: inhibition of virus (luminescence, percentage of untreated virus control)", "result": "70 to 80", "unit": "%"}, {"measurement": "decrease in GFP positive cells", "setting": "AAV6-GFP particles", "result": "5-10%"}, {"measurement": "distance of Tf647 labelled endocytic vesicles from the nuclei", "setting": "[3]", "result": "15-20 microns"}, {"measurement": "effect on virus entry (VP6 positive cells, IFA)", "setting": "Rota virus RRV strain", "result": "did not have any effects"}, {"measurement": "toxicity (bodyweight changes over 9 days)", "setting": "[4]", "result": "toxic"}, {"measurement": "body weight vs PBS treated control", "setting": "[4]; ip", "result": "no differences in body weight"}, {"measurement": "decrease in total body weight", "setting": "[4]; ip", "result": "10-12%"}, {"measurement": "inhibition at 2000 µM", "setting": "[5]", "result": "80 to 90", "unit": "%"}, {"measurement": "cellular uptake of transferrin (Tf647 positive cells)", "setting": "[6]", "result": "did not show any differences"}, {"measurement": "effect on virus entry (VP1 western blot)", "setting": "Coxsackie virus B3; incubation of virus with drug 1 hr prior to infection", "result": "did not have any effects"}, {"measurement": "effect on virus entry (VP1 western blot)", "setting": "Coxsackie virus B3; pre-treatment 3 hr with 2 mM PA, 10 MOI", "result": "did not have any effects"}, {"measurement": "effect on virus entry (VP1 western blot)", "setting": "Coxsackie virus B3; treatment at the time of infection (T0)", "result": "did not have any effects"}]}
